Source: PMC5218480 (PLoS ONE, 2017)

Test system: MV-4-11 cells
Assay: Gene expression microarray analysis (Affymetrix PrimeView) and GSEA
Type: cell-based, human
Set-up: RFU PODN (11730768_x_at) / Fold change /veh PODN (11730768_x_at) / RFU LINC00158 (11744669_a_at) / Fold change /veh LINC00158 (11744669_a_at) / RFU DUSP10 (11751237_a_at) / Fold change /veh DUSP10 (11751237_a_at) / RFU ID3 (11757404_x_at) / Fold change /veh ID3 (11757404_x_at) / RFU PLEKHG5 (11737974_s_at) / Fold change /veh PLEKHG5 (11737974_s_at) / RFU LRRC4B (11730491_at) / Fold change /veh LRRC4B (11730491_at) / RFU GIMAP4 (11747438_a_at) / Fold change /veh GIMAP4 (11747438_a_at) / RFU KRT8 (11758183_x_at) / Fold change /veh KRT8 (11758183_x_at) / RFU CNN1 (11734310_a_at) / Fold change /veh CNN1 (11734310_a_at) / RFU VPS37D (11726825_at) / Fold change /veh VPS37D (11726825_at) / RFU C10orf10 (11716522_x_at) / Fold change /veh C10orf10 (11716522_x_at) / RFU KIR2DL2 /// KIR2DL4 /// KIR2DL5A /// KIR2DL5B /// KIR2DS1 /// KIR2DS2 /// KIR2DS3 /// KIR2DS4 /// KIR3DL3 /// KIR3DL3 /// KIR3DS1 (11738374_at) / Fold change /veh KIR2DL2 /// KIR2DL4 /// KIR2DL5A /// KIR2DL5B /// KIR2DS1 /// KIR2DS2 /// KIR2DS3 /// KIR2DS4 /// KIR3DL3 /// KIR3DL3 /// KIR3DS1 (11738374_at) / RFU C1QL1 (11718748_at) / Fold change /veh C1QL1 (11718748_at) / RFU TMPRSS4 (11747572_a_at) / Fold change /veh TMPRSS4 (11747572_a_at) / RFU HAMP (11756126_x_at) / Fold change /veh HAMP (11756126_x_at) / RFU RNFT2 (11725882_a_at) / Fold change /veh RNFT2 (11725882_a_at) / RFU NR4A2 (11747474_a_at) / Fold change /veh NR4A2 (11747474_a_at) / RFU ABCC12 (11746883_a_at) / Fold change /veh ABCC12 (11746883_a_at) / RFU TMEM136 (11760407_x_at) / Fold change /veh TMEM136 (11760407_x_at) / RFU CLDN22 /// WWC2 (11732394_at) / Fold change /veh CLDN22 /// WWC2 (11732394_at) / RFU HLA-DPB1 (11760878_x_at) / Fold change /veh HLA-DPB1 (11760878_x_at) / RFU SPINT1 (11716480_a_at) / Fold change /veh SPINT1 (11716480_a_at) / RFU GAP43 (11754022_s_at) / Fold change /veh GAP43 (11754022_s_at) / RFU A4GNT (11735810_at) / Fold change /veh A4GNT (11735810_at) / RFU PRB3 (11715151_x_at) / Fold change /veh PRB3 (11715151_x_at) / RFU TUBB4B (11761932_at) / Fold change /veh TUBB4B (11761932_at) / RFU CAPN14 (11732068_a_at) / Fold change /veh CAPN14 (11732068_a_at) / RFU TMCC2 (11721928_a_at) / Fold change /veh TMCC2 (11721928_a_at) / RFU IRGQ (11745062_a_at) / Fold change /veh IRGQ (11745062_a_at) / RFU FAM174B (11720279_a_at) / Fold change /veh FAM174B (11720279_a_at) / RFU TMPRSS4 (11748680_a_at) / Fold change /veh TMPRSS4 (11748680_a_at) / RFU FAM212B (11763350_a_at) / Fold change /veh FAM212B (11763350_a_at) / RFU PLEKHG5 (11743358_a_at) / Fold change /veh PLEKHG5 (11743358_a_at) / RFU ZSCAN30 (11745921_a_at) / Fold change /veh ZSCAN30 (11745921_a_at) / RFU CMKLR1 (11741424_a_at) / Fold change /veh CMKLR1 (11741424_a_at) / RFU LOC101060620 /// MAPK8IP1 (11723275_at) / Fold change /veh LOC101060620 /// MAPK8IP1 (11723275_at) / RFU SPTSSB (11747773_x_at) / Fold change /veh SPTSSB (11747773_x_at) / RFU PRSS12 (11739890_at) / Fold change /veh PRSS12 (11739890_at) / RFU BIN1 (11741810_x_at) / Fold change /veh BIN1 (11741810_x_at) / RFU WNT11 (11732464_a_at) / Fold change /veh WNT11 (11732464_a_at) / RFU C10orf10 (11716521_a_at) / Fold change /veh C10orf10 (11716521_a_at) / RFU C5orf56 (11738089_at) / Fold change /veh C5orf56 (11738089_at) / RFU CYB561 (11721691_x_at) / Fold change /veh CYB561 (11721691_x_at) / RFU ANKRD19P (11752326_a_at) / Fold change /veh ANKRD19P (11752326_a_at) / RFU OR2T12 /// OR2T33 /// OR2T8 (11738714_s_at) / Fold change /veh OR2T12 /// OR2T33 /// OR2T8 (11738714_s_at) / RFU VCAN (11748164_a_at) / Fold change /veh VCAN (11748164_a_at) / RFU JSRP1 (11732532_at) / Fold change /veh JSRP1 (11732532_at) / RFU KRTAP10-11 (11738290_x_at) / Fold change /veh KRTAP10-11 (11738290_x_at) / RFU MYO3A (11730013_a_at) / Fold change /veh MYO3A (11730013_a_at) / RFU EBF3 (11725865_a_at) / Fold change /veh EBF3 (11725865_a_at) / RFU CAMK2N1 (11719241_x_at) / Fold change /veh CAMK2N1 (11719241_x_at) / RFU C5orf56 (11738088_a_at) / Fold change /veh C5orf56 (11738088_a_at) / RFU OLFML3 (11715873_a_at) / Fold change /veh OLFML3 (11715873_a_at) / RFU LOC100653217 /// NTM (11731650_a_at) / Fold change /veh LOC100653217 /// NTM (11731650_a_at) / RFU MAPK11 (11762145_a_at) / Fold change /veh MAPK11 (11762145_a_at) / RFU FIZ1 (11724087_x_at) / Fold change /veh FIZ1 (11724087_x_at) / RFU OASL (11726364_x_at) / Fold change /veh OASL (11726364_x_at) / RFU SOX15 (11748057_x_at) / Fold change /veh SOX15 (11748057_x_at) / RFU CD79A (11719716_a_at) / Fold change /veh CD79A (11719716_a_at) / RFU HIST1H1D (11736915_at) / Fold change /veh HIST1H1D (11736915_at) / RFU CASKIN2 (11723855_a_at) / Fold change /veh CASKIN2 (11723855_a_at) / RFU LOC730098 (11760151_x_at) / Fold change /veh LOC730098 (11760151_x_at) / RFU OR4N2 (11742367_at) / Fold change /veh OR4N2 (11742367_at) / RFU PRRT2 (11749266_a_at) / Fold change /veh PRRT2 (11749266_a_at) / RFU SNX32 (11753110_a_at) / Fold change /veh SNX32 (11753110_a_at) / RFU CDHR5 (11726645_a_at) / Fold change /veh CDHR5 (11726645_a_at) / RFU RCAN1 (11760418_a_at) / Fold change /veh RCAN1 (11760418_a_at) / RFU FAM167A (11723789_a_at) / Fold change /veh FAM167A (11723789_a_at) / RFU FAM26E (11764081_at) / Fold change /veh FAM26E (11764081_at) / RFU ISYNA1 (11749810_s_at) / Fold change /veh ISYNA1 (11749810_s_at) / RFU ACY1 (11761880_at) / Fold change /veh ACY1 (11761880_at) / RFU 11764098_at / Fold change /veh 11764098_at / RFU SAMD14 (11745864_x_at) / Fold change /veh SAMD14 (11745864_x_at) / RFU NPB (11741838_a_at) / Fold change /veh NPB (11741838_a_at) / RFU TMPRSS6 (11731388_a_at) / Fold change /veh TMPRSS6 (11731388_a_at) / RFU KRTAP10-2 (11738614_at) / Fold change /veh KRTAP10-2 (11738614_at) / RFU ARHGAP8 /// PRR5-ARHGAP8 (11727945_x_at) / Fold change /veh ARHGAP8 /// PRR5-ARHGAP8 (11727945_x_at) / RFU KRTAP5-7 /// NADSYN1 (11734609_at) / Fold change /veh KRTAP5-7 /// NADSYN1 (11734609_at) / RFU RASL12 (11751679_a_at) / Fold change /veh RASL12 (11751679_a_at) / RFU CDKN2B (11736163_a_at) / Fold change /veh CDKN2B (11736163_a_at) / RFU PRF1 (11729649_at) / Fold change /veh PRF1 (11729649_at) / RFU, ZNF638 /// ZNF638-IT1 / Fold change vs veh, ZNF638 /// ZNF638-IT1 / RFU, PANK3 / Fold change vs veh, PANK3 / RFU, SH3YL1 / Fold change vs veh, SH3YL1 / RFU, ZEB2 / Fold change vs veh, ZEB2 / RFU, NRIP1 / Fold change vs veh, NRIP1 / RFU, PTTG1IP / Fold change vs veh, PTTG1IP / RFU, CAPN2 / Fold change vs veh, CAPN2 / RFU, MED14 / Fold change vs veh, MED14 / RFU, SNORA58 / Fold change vs veh, SNORA58 / RFU, C1orf63 / Fold change vs veh, C1orf63 / RFU, LRRFIP1 / Fold change vs veh, LRRFIP1 / RFU, NDUFAF7 / Fold change vs veh, NDUFAF7 / RFU, SLC12A2 / Fold change vs veh, SLC12A2 / RFU, IBTK / Fold change vs veh, IBTK / RFU, ESF1 / Fold change vs veh, ESF1 / Fold change vs veh, TMEM50B / RFU, TAOK1 / Fold change vs veh, TAOK1 / RFU, ACBD3 / Fold change vs veh, ACBD3 / RFU, TMA16 / Fold change vs veh, TMA16 / RFU, RWDD3 / Fold change vs veh, RWDD3 / RFU, BCAT1 / Fold change vs veh, BCAT1 / RFU, EDEM3 / Fold change vs veh, EDEM3 / RFU, TMEM33 / Fold change vs veh, TMEM33 / RFU, WDR75 / Fold change vs veh, WDR75 / RFU, AHCTF1 / Fold change vs veh, AHCTF1 / RFU, TFRC / Fold change vs veh, TFRC / RFU, ZDHHC17 / Fold change vs veh, ZDHHC17 / RFU, NOM1 / Fold change vs veh, NOM1 / RFU, ARL8B / Fold change vs veh, ARL8B / RFU, ZBTB11 / Fold change vs veh, ZBTB11 / RFU, TAMM41 / Fold change vs veh, TAMM41 / RFU, KIAA1704 /// LOC100996395 / Fold change vs veh, KIAA1704 /// LOC100996395 / RFU, ING1 / Fold change vs veh, ING1 / RFU, TRMT61B / Fold change vs veh, TRMT61B / RFU, FUBP3 / Fold change vs veh, FUBP3 / RFU, TP53 / Fold change vs veh, TP53 / RFU, TNKS2 / Fold change vs veh, TNKS2 / RFU, ZFP14 / Fold change vs veh, ZFP14 / RFU, ACTR2 / Fold change vs veh, ACTR2 / RFU, PPP3R1 / Fold change vs veh, PPP3R1 / RFU, PIK3R1 / Fold change vs veh, PIK3R1 / RFU, HNRNPA1 / Fold change vs veh, HNRNPA1 / RFU, RNF170 / Fold change vs veh, RNF170 / RFU, ZNF28 / Fold change vs veh, ZNF28 / RFU, RNGTT / Fold change vs veh, RNGTT / RFU, OGT / Fold change vs veh, OGT / RFU, BRD1 / Fold change vs veh, BRD1 / RFU, MARS / Fold change vs veh, MARS / RFU, ZNF655 / Fold change vs veh, ZNF655 / RFU, FAHD1 / Fold change vs veh, FAHD1 / RFU, BDP1 / Fold change vs veh, BDP1 / RFU, LRRCC1 / Fold change vs veh, LRRCC1 / RFU, ARID1A / Fold change vs veh, ARID1A / RFU, ZNF146 / Fold change vs veh, ZNF146 / RFU, ZNF330 / Fold change vs veh, ZNF330 / RFU, GPN3 / Fold change vs veh, GPN3 / RFU, C9orf123 / Fold change vs veh, C9orf123 / RFU, N4BP2L2 / Fold change vs veh, N4BP2L2 / RFU, ARFIP1 / Fold change vs veh, ARFIP1 / RFU, FAM179B / Fold change vs veh, FAM179B / RFU, BCL10 / Fold change vs veh, BCL10 / RFU, UHRF1BP1L / Fold change vs veh, UHRF1BP1L / RFU, BET1 / Fold change vs veh, BET1 / RFU, CNOT2 / Fold change vs veh, CNOT2 / RFU, ZNF268 / Fold change vs veh, ZNF268 / Fold change vs veh, ZNF507 / RFU, DGCR2 / Fold change vs veh, DGCR2 / RFU, WDSUB1 / Fold change vs veh, WDSUB1 / Fold change vs veh, HSP90B1 /// MIR3652 / RFU, ADSS / Fold change vs veh, ADSS / RFU, GK / Fold change vs veh, GK / RFU, ZNF148 / Fold change vs veh, ZNF148 / RFU, TAF9 / Fold change vs veh, TAF9 / RFU, SLC1A5 / Fold change vs veh, SLC1A5 / RFU, SLMO2 / Fold change vs veh, SLMO2 / RFU, ABCC4 / Fold change vs veh, ABCC4 / RFU, LOC101060439 /// RAP1B / Fold change vs veh, LOC101060439 /// RAP1B / RFU, RFX7 / Fold change vs veh, RFX7 / RFU, GTPBP10 / Fold change vs veh, GTPBP10 / RFU, CNEP1R1 / Fold change vs veh, CNEP1R1 / RFU, BIVM-ERCC5 /// ERCC5 / Fold change vs veh, BIVM-ERCC5 /// ERCC5 / RFU, ILF3 / Fold change vs veh, ILF3 / RFU 11762660_at / Fold change /veh 11762660_at / RFU VCAN (11757783_s_at) / Fold change /veh VCAN (11757783_s_at) / RFU DDX43 (11728927_at) / Fold change /veh DDX43 (11728927_at) / RFU KRT8 (11758188_x_at) / Fold change /veh KRT8 (11758188_x_at) / RFU NKD1 (11759106_at) / Fold change /veh NKD1 (11759106_at) / RFU SRD5A1 (11742802_a_at) / Fold change /veh SRD5A1 (11742802_a_at) / RFU TPSAB1 /// TPSB2 (11721975_s_at) / Fold change /veh TPSAB1 /// TPSB2 (11721975_s_at) / RFU GSTM3 (11746129_a_at) / Fold change /veh GSTM3 (11746129_a_at) / RFU IL23R (11737362_x_at) / Fold change /veh IL23R (11737362_x_at) / RFU TMEM51 (11727254_a_at) / Fold change /veh TMEM51 (11727254_a_at) / RFU PIWIL2 (11732686_x_at) / Fold change /veh PIWIL2 (11732686_x_at) / RFU ORM1 (11744905_x_at) / Fold change /veh ORM1 (11744905_x_at) / RFU CCDC152 (11743942_at) / Fold change /veh CCDC152 (11743942_at) / RFU ECM1 (11717891_a_at) / Fold change /veh ECM1 (11717891_a_at) / RFU IL23R (11748794_a_at) / Fold change /veh IL23R (11748794_a_at) / RFU TNFAIP8L3 (11732012_x_at) / Fold change /veh TNFAIP8L3 (11732012_x_at) / RFU MBOAT4 (11741988_at) / Fold change /veh MBOAT4 (11741988_at) / RFU 11764193_at / Fold change /veh 11764193_at / RFU TMEM53 (11763286_at) / Fold change /veh TMEM53 (11763286_at) / RFU MAGEB2 (11727129_at) / Fold change /veh MAGEB2 (11727129_at) / RFU TMEM200A (11744735_a_at) / Fold change /veh TMEM200A (11744735_a_at) / RFU CCDC152 (11751479_a_at) / Fold change /veh CCDC152 (11751479_a_at) / RFU FAM211A (11726209_a_at) / Fold change /veh FAM211A (11726209_a_at) / RFU RGS16 (11746705_a_at) / Fold change /veh RGS16 (11746705_a_at) / RFU VCAN (11755009_s_at) / Fold change /veh VCAN (11755009_s_at) / RFU RHOB (11743442_s_at) / Fold change /veh RHOB (11743442_s_at) / RFU RGS16 (11720943_a_at) / Fold change /veh RGS16 (11720943_a_at) / RFU RGS16 (11720944_at) / Fold change /veh RGS16 (11720944_at) / RFU, VPS4B / Fold change vs veh, VPS4B / RFU, CREB1 / Fold change vs veh, CREB1 / RFU, DNAJC13 / Fold change vs veh, DNAJC13 / RFU, GNAQ / Fold change vs veh, GNAQ / RFU, CDK5R1 / Fold change vs veh, CDK5R1 / RFU, ZRANB3 / Fold change vs veh, ZRANB3 / RFU, CUL4A / Fold change vs veh, CUL4A / RFU, CCNY / Fold change vs veh, CCNY / RFU, UFL1 / Fold change vs veh, UFL1 / RFU, COG3 / Fold change vs veh, COG3 / RFU, DIAPH2 / Fold change vs veh, DIAPH2 / RFU, SKA2 / Fold change vs veh, SKA2 / RFU, AFF3 / Fold change vs veh, AFF3 / RFU, LMF1 / Fold change vs veh, LMF1 / RFU, IPO11 / Fold change vs veh, IPO11 / RFU, DFFB / Fold change vs veh, DFFB / RFU, FOXP1 / Fold change vs veh, FOXP1 / RFU, CARD8 / Fold change vs veh, CARD8 / RFU, STRN3 / Fold change vs veh, STRN3 / RFU, ADK / Fold change vs veh, ADK / RFU, RASSF2 / Fold change vs veh, RASSF2 / RFU, WIPF1 / Fold change vs veh, WIPF1 / RFU, LARP1B / Fold change vs veh, LARP1B / RFU, RASA1 / Fold change vs veh, RASA1 / RFU, RB1 / Fold change vs veh, RB1 / RFU, PPFIA1 / Fold change vs veh, PPFIA1 / RFU, MAT2A / Fold change vs veh, MAT2A / RFU, CCT5 / Fold change vs veh, CCT5 / RFU, WDR92 / Fold change vs veh, WDR92 / RFU, CUX1 / Fold change vs veh, CUX1 / RFU, TTC7A / Fold change vs veh, TTC7A / RFU, TMEM135 / Fold change vs veh, TMEM135 / RFU, DEPTOR / Fold change vs veh, DEPTOR / RFU, CPM / Fold change vs veh, CPM / RFU, DNAJB6 / Fold change vs veh, DNAJB6 / RFU, CACNA2D3 / Fold change vs veh, CACNA2D3 / RFU, DTX4 / Fold change vs veh, DTX4 / RFU, TFCP2 / Fold change vs veh, TFCP2 / RFU, GMCL1 /// GMCL1P1 / Fold change vs veh, GMCL1 /// GMCL1P1 / RFU, AEBP2 / Fold change vs veh, AEBP2 / RFU, SNHG1 /// SNORD22 /// SNORD25 /// SNORD26 /// SNORD27 /// SNORD28 /// SNORD29 /// SNORD31 / Fold change vs veh, SNHG1 /// SNORD22 /// SNORD25 /// SNORD26 /// SNORD27 /// SNORD28 /// SNORD29 /// SNORD31 / Fold change (Aza/veh), C12orf56 (ProbeSet 11735607_a_at) / Fold change (ACY-1035/veh), C12orf56 (ProbeSet 11735607_a_at) / Fold change (Aza/veh), FGFR1OP (ProbeSet 11751329_s_at) / Fold change (ACY-1035/veh), FGFR1OP (ProbeSet 11751329_s_at) / Fold change (Aza/veh), VPS36 (ProbeSet 11739960_a_at) / Fold change (ACY-1035/veh), VPS36 (ProbeSet 11739960_a_at) / RFU SYPL1 (11715823_x_at) / Fold change /veh SYPL1 (11715823_x_at) / RFU IGFBP7 (11715501_s_at) / Fold change /veh IGFBP7 (11715501_s_at) / RFU REEP3 (11722064_at) / Fold change /veh REEP3 (11722064_at) / RFU IGLL1 (11728026_x_at) / Fold change /veh IGLL1 (11728026_x_at): dose or concentration left out as unconfirmed
Settings: MV-4-11 cells, 48 hours

## Nc1ncn([C@@H]2O[C@H](CO)[C@@H](O)[C@H]2O)c(=O)n1 [azacitidine]
  Fold change /veh CCDC152 (11751479_a_at): 2.85
